Laboratory results taken from US20040224922A1, “Use of charged dextran as a mucoactive agent and methods and pharmaceutical compositions relating thereto” (priority 1999, published 2004).

Experiments:
[1] = Viscoelasticity of cystic fibrosis sputum in vitro by magnetic rheometry; parameters: species or system human; conditions: final concentration 8 mg/ml in CF sputum
Excerpt: FIG. 5 is a bar graph illustrating the effect of heparin and dextran sulfate on […] of sputum from 7 cystic fibrosis human patients as determined by magnetic rheometry, expressed as the average log G* over 1-100 rad/s after treatment with saline, heparin (MW 6000), Dextran Sulfate (MW 5000, about 17% sulphur by weight), heparin (dimer, highly (fully) sulfated, H-9267: C12H13NO19S3Na4), or heparin (dimer, low sulfate, partially de-sulfated H-9142, C12H18NO13SNa) to a final concentration of about 8 mg/ml (or […]) of sputum. […] The effect was similar to heparin, M.W. 6000.
Mucus Viscoelasticity Measurements: The magnetic microrheometer technique was used to measure the viscosity and elasticity of the dog mucus samples [21]. A […] steel ball was positioned in a 5-10 mL sample of mucus, and the motion of this sphere under the influence of an oscillating electromagnetic field gradient was used to determine the rheological properties of the mucus. The image of the steel ball was projected via a microscope onto a pair of photocells, whose output was amplified and transmitted to an oscilloscope. […]
(§1) The parameters of mucus viscoelasticity determined were the rigidity index or mechanical impedance, i.e. G*, reported here on a log scale, expressing the average vector sum of “viscosity+elasticity” over the frequency range 1-100 rad/s, and tan d, the mechanical loss tangent, expressing the ratio of viscous to elastic deformation. These viscoelastic parameters can be used to predict mucus clearability by ciliary and cough mechanisms, based on the measured Theological properties and observations of clearance from model studies.
(a) In vitro Sputum from 7 cystic fibrosis human patients were measured with regards to viscoelasticity after treatment with saline, heparin (MW˜6000), dextran sulfate (MW˜5000), heparin (dimer, highly sulfated), or heparin (dimer, de-sulfated) in accordance with the protocols for measuring viscoelasticity described in Example 1. […]

healthy mongrel dogs [2] = assay: Tracheal mucus viscoelasticity by magnetic microrheometry after aerosol; format: in vivo, dog
Method: (§2) Seven healthy mongrel dogs (6 male/1 female), weight 21-28 kg, with no respiratory tract bacterial infections, were studied. The dogs were anesthetized with sodium pentobarbital (ca 30 mg/kg i.v., supplemented as required) and intubated with a cuffed endotracheal tube. They were administered Ringer aerosol first, followed by 6.5 mg/ml dextran sulfate, 20 mg/ml dextran sulfate, and 65 mg/ml dextran sulfate by aerosol. Each aerosolization was of 30 minutes duration, with a rest period of 30 minutes before the beginning of the next aerosol delivery. The aerosols were generated and delivered by a Pari LC STAR nebulizer using an air flow rate of 8 l/min, which results in an output of 0.58 ml/min and particles of […] mass median diameter. The nebulizer was loaded in each case with 10 ml of solution. The amount of solution remaining in the nebulizer after 30 minutes was recorded. A T-tube connection was provided to the endotracheal tube during aerosol delivery to ensure a minimal deadspace for ventilation and adequate delivery of the aerosol. The dogs breathed spontaneously throughout the experiment.
(§3) Tracheal mucus velocity (TMV) and tracheal potential difference (PD) was measured, and mucus samples were collected for each concentration of delivered drug. TMV was measured twice for each dose, i.e. during aerosolization, between 15 and 25 minutes from the start of aerosol delivery (designated as period-1), and 10-20 minutes after completion of aerosolization (designated as period-2). PD was measured during the period 5 to 10 minutes following each aerosol. Mucus was collected twice for each aerosol, once immediately after 30 minutes of aerosolization and a second time after an additional 30 minutes of aerosolization and a second time after an additional 30 minutes of spontaneous breathing.
All samples of dog mucus collected from endotracheal tubes were placed in 1.5 ml Eppendorf tubes for measurement of viscoelasticity by magnetic rheometry. After initial rheological testing, the mucus samples were preserved at −80° C. for subsequent analysis of collection rate and solids content.
Mucus Viscoelasticity Measurements: The magnetic microrheometer technique was used to measure the viscosity and elasticity of the dog mucus samples [21]. A […] steel ball was positioned in a 5-10 mL sample of mucus, and the motion of this sphere under the influence of an oscillating electromagnetic field gradient was used to determine the rheological properties of the mucus. The image of the steel ball was projected via a microscope onto a pair of photocells, whose output was amplified and transmitted to an oscilloscope. By plotting the displacement of the ball against the magnetic driving force, the viscoelastic properties of the mucus were ascertained.
as §1
(b) In vivo Seven healthy dogs were anesthetized, intubated and treated via aerosol with heparin sodium (MW 5000-6000) or dextran sulfate (MW 5000) and mucus viscoelasticity, transepithelial potential difference (PD) and tracheal mucus velocity (TMV) were determined, in accordance with the protocols described in Example 1 above. Non-lactated Ringer's solution was used as control. […] These changes were accompanied by a nonsignificant, upward trend in TMV, to approximately 130% of control. However, changes might be even more pronounced in animals with initially rigid mucus.

healthy mongrel dogs [3] = assay: Tracheal mucociliary velocity (TMV) by charcoal particle displacement; format: in vivo, dog
Method: as §2, with “The dogs breathed spontaneously throughout the experiment.” left out
as §3, with “Mucus was collected twice for each aerosol, once immediately after 30 minutes of aerosolization and a second time after an additional 30 minutes of aerosolization and a second time after an additional 30 minutes of spontaneous breathing.” left out
Tracheal Mucociliary Velocity (TMV, mm/min): TMV was determined by observing the rate of charcoal marker particle transport in the lower trachea. Under bronchoscopic visualization, ca, 5 mL of a charcoal suspension (Charac-50 diluted in Ringer's 1:10) was deposited on a lateral surface of the lower trachea 1-2 cm above the carina, and the rate of cephalad progression of the leading edge of the charcoal spot was monitored over the course of 10 minutes by gradually withdrawing the bronchoscope and recording its position relative to the endotracheal tube. […]

healthy mongrel dogs [4] = assay: Tolerability / toxic effects of aerosol inhalation in dogs; format: in vivo, dog
Method: Seven healthy mongrel dogs (6 male/1 female), weight 21-28 kg, with no respiratory tract bacterial infections, were studied. The dogs were anesthetized with sodium pentobarbital (ca 30 mg/kg i.v., supplemented as required) and intubated with a cuffed endotracheal tube. They were administered Ringer aerosol first, followed by 6.5 mg/ml dextran sulfate, 20 mg/ml dextran sulfate, and 65 mg/ml dextran sulfate by aerosol. Each aerosolization was of 30 minutes duration, with a rest period of 30 minutes before the beginning of the next aerosol delivery. The aerosols were generated and delivered by a Pari LC STAR nebulizer using an air flow rate of 8 l/min, which results in an output of 0.58 ml/min and particles of 2.0 mm mass median diameter. The nebulizer was loaded in each case with 10 ml of solution. The amount of solution remaining in the nebulizer after 30 minutes was recorded. A T-tube connection was provided to the endotracheal tube during aerosol delivery to ensure a minimal deadspace for ventilation and adequate delivery of the aerosol. The dogs breathed spontaneously throughout the experiment.

healthy mongrel dogs [5] = assay: Solids content (% SC) of collected airway secretion; format: in vivo, dog
Method: as §2
as §3, with “Mucus was collected twice for each aerosol, once immediately after 30 minutes of aerosolization and a second time after an additional 30 minutes of aerosolization and a second time after an additional 30 minutes of spontaneous breathing.” left out
Solids content (wet:dry weight ratio): A drying apparatus and microbalance were used to calculate the dry weight and wet weight of the collected secretion, from which the percent solids content (% SC) was calculated. […] These dried samples were then reweighed, and % SC was calculated from ratio of dry to wet weight.

healthy mongrel dogs [6] = assay: Mucus collection weight (MCW) by endotracheal tube method; format: in vivo, dog
Method: as §2, §3
Mucus Collection Weight (MCW, mg/30 min): Tracheal mucus was collected by the endotracheal tube (ETT) method, which involves the removal of mucus adherent to the ETT after extubation. Mucus collections were performed twice after each aerosol, once by immediately removing the ETT following aerosol inhalation, and the second 30 minute after inhalation, after re-installing a clean ETT The mucus samples, which had been frozen, were thawed and weighed by microbalance, to determine MCW, an index of flux, and indirectly of the rate of secretion.

healthy mongrel dogs [7] = assay: Tracheal transepithelial potential difference (PD) by agar bridge technique after aerosol; format: in vivo, dog
Method: as §2
as §3, with “Mucus was collected twice for each aerosol, once immediately after 30 minutes of aerosolization and a second time after an additional 30 minutes of aerosolization and a second time after an additional 30 minutes of spontaneous breathing.” left out
Transepithelial Potential Difference (PD, -mV); PD was measured by using two flexible microelectrodes (agar bridges of PE 160 size) saturated with KCl connected to calomel half cells, one for reference and the other for testing. […] The PD value was recorded when a steady state, value was achieved and remained stable for a least 30 seconds. […]

human subjects = conditions: oral, human subjects [34]; cited from earlier work

Molecule: N[C@H]1C(O)O[C@H](CO)[C@@H](O[C@@H]2OC(C(=O)O)=C[C@H](O)[C@H]2OS(=O)(=O)O)[C@@H]1O (stereo partly shown) [de-sulfated heparin dimer]
- viscoelasticity (average log G* over 1-100 rad/s) compared to saline control [1]: no significant improvement

Molecule: O=C(O)C1=C[C@H](O)[C@@H](OS(=O)(=O)O)[C@H](O[C@H]2[C@H](O)[C@@H](NS(=O)(=O)O)C(O)O[C@@H]2COS(=O)(=O)O)O1 (stereo partly shown) [highly sulfated heparin dimer]
- viscoelasticity (average log G* over 1-100 rad/s) compared to saline control [1]: significant decrease in viscoelasticity

Molecule: Dextran sulfate, sodium salt [DexSO4]
- mucus recoil parameter, tan d (healthy mongrel dogs [2]; aerosol 6.5-65 mg/ml): no significant changes
- average log G* compared with respective Ringer control (healthy mongrel dogs [2]; aerosol at 6.5 and 65 mg/ml): significant decrease
- decrease in G* expressed as a factor (healthy mongrel dogs [2]; during 65 mg/ml aerosol): 2.61
- mean decrease in average log G* (1-100 rad/s) (healthy mongrel dogs [2]; during 65 mg/ml aerosol, vs Ringer, p=0.021): 0.42 log units
- effective concentration range relative to neutral dextran (reduced viscoelastic modulus, predicted clearance) (healthy mongrel dogs [2]; in vivo, healthy dog mucus): half-log lower concentration range
- TMV, % of baseline (healthy mongrel dogs [3]; 6.5 mg/ml aerosol (first dose), non-significant, p=0.066): 128 % of baseline
- change in mucociliary velocity (TMV) (healthy mongrel dogs [3]; aerosol 6.5-65 mg/ml, during and after aerosolization): no significant change
- bronchial mucosal appearance (healthy mongrel dogs [4]; aerosol 6.5, 20, 65 mg/ml): remained normal
- cough or other side effects during inhalation (healthy mongrel dogs [4]; aerosol 6.5, 20, 65 mg/ml, 30 min each, all seven dogs): without significant cough or other side effects
- toxic effects (healthy mongrel dogs [4]; present study, aerosol in dogs): no toxic effects
- solids content (% SC) of collected fluid (healthy mongrel dogs [5]; 65 mg/ml-1 (Ringer-1: 6.16±0.20%), p=0.042): 9.27±1.02%
- solids content (% SC) of collected fluid (healthy mongrel dogs [5]; 65 mg/ml-2 (Ringer-2: 6.87±0.92%), p=0.009): 10.78%
- effect on mucus % solids content (healthy mongrel dogs [5]; increasing concentrations 6.5, 20, 65 mg/ml): significant increase
- mucus collection weight (MCW, mg/30 min) (healthy mongrel dogs [6]; 6.5 mg/ml-1 (collected immediately after aerosol), wet weight): 4.35 ± 0.67 mg
- mucus collection weight (MCW, mg/30 min) (healthy mongrel dogs [6]; 20 mg/ml-1, wet weight): 4.47 ± 0.59 mg
- mucus collection weight (MCW, mg/30 min) (healthy mongrel dogs [6]; 65 mg/ml-1, wet weight): 5.64 ± 1.14 mg
- change in mucus collection weight with increasing concentration (healthy mongrel dogs [6]; 6.5-65 mg/ml aerosol): no change
- mean increase in PD (maximal change) (healthy mongrel dogs [7]; 65 mg/ml aerosol, vs Ringer control): 9.86 mV
- PD compared with Ringer control (healthy mongrel dogs [7]; after 30-minute aerosol at 6.5, 20 and 65 mg/ml, 7 dogs): increased significantly

Molecule: dextran sulfate [dextran sulfate (m.w. 7000)]
- absorbability (human subjects): poor absorbablity
- anticoagulant effect (human subjects): little anticoagulant effect
- other safety concerns (human subjects): no other apparent safety concerns

Molecule: heparin [heparin, MW 6000]
- viscoelasticity (average log G* over 1-100 rad/s) compared to saline control [1]: similar

Molecule: heparin sodium [reference compound]
- mucus viscoelasticity (G*), % of control (healthy mongrel dogs [2]; 6.5 mg/ml aerosol, significantly decreased): 36 % of control
- TMV, % of control (healthy mongrel dogs [3]; 6.5 mg/ml aerosol, nonsignificant upward trend): approximately 130 % of control
- PD, % of control (healthy mongrel dogs [7]; 6.5 mg/ml aerosol, significant decrease, Ringer control): 55.1 % of control
